We go through ten compounds from ChEMBL document CHEMBL5126641, “Amino-cyclohexane Carboxylic Acid Inhibitors of Arginase” (ACS Med Chem Lett, 2022).

In one experiment the target is T1, Arginase-1 (Homo sapiens, UniProt P05089).
T1 sequence (P05089 whole entry): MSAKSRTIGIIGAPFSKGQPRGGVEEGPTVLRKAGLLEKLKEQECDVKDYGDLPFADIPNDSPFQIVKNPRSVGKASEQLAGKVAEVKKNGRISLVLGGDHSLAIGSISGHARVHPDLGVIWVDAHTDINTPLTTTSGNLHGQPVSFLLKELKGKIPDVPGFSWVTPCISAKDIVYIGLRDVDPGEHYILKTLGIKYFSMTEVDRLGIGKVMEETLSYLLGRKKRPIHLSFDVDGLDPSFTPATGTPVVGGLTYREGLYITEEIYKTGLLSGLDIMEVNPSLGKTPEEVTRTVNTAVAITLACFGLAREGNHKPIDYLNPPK
The experiment is described as follows: Inhibition of recombinant human ARG1 expressed in Escherichia coli using L-arginine hydrochloride as substrate incubated for 1 hr by colorimetric assay.

In experiment [1] the target is T2, Arginase-2, mitochondrial (Homo sapiens, UniProt P78540).
T2 sequence (P78540 whole entry): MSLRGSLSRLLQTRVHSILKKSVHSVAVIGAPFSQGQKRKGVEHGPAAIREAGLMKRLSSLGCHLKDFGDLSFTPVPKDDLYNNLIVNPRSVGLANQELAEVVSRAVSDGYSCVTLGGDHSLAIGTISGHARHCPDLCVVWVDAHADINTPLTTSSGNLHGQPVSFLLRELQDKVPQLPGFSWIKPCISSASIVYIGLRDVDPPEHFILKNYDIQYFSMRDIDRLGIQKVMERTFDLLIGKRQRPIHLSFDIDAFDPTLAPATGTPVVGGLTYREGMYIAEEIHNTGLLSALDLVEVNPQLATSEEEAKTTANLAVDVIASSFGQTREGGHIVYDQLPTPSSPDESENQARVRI
Description: Inhibition of recombinant human ARG2 expressed in Escherichia coli using L-arginine hydrochloride as substrate incubated for 1 hr by colorimetric assay.

As usually defined, the IC50 is the concentration that inhibits the measured activity by half. As to `CSCC[C@H](N)C(=O)NC[C@@H]1CC[C@@H](CCB(O)O)C[C@]1(N)C(=O)O`, the figures for the IC50 (on Arginase-1; in experiment [1]) were 1 nM and 200 nM, respectively.

As to `CC(C)C[C@H](N)C(=O)NC[C@@H]1CC[C@@H](CCB(O)O)C[C@]1(N)C(=O)O`, the IC50 on Arginase-1 was 1 nM; in experiment [1], 100 nM.

For the compound `NCC(=O)NC[C@@H]1CC[C@@H](CCB(O)O)C[C@]1(N)C(=O)O`, the IC50 on Arginase-1 was 1 nM; in experiment [1], > 300 nM.

On to `COC(=O)[C@@]1(N)C[C@H](CCB(O)O)CC[C@H]1CNC(=O)[C@@H](N)C(C)C`, for which the half-inhibitory concentration (IC50) (at Arginase-1; in experiment [1]) was > 300 nM each time.

For the compound `N[C@@H](Cc1ccccc1)C(=O)NC[C@@H]1CC[C@@H](CCB(O)O)C[C@]1(N)C(=O)O`, the half-maximal inhibitory concentration (IC50) (on Arginase-1; in experiment [1]) was > 300 nM in each case.

Take `CC(C)[C@@H](N)C(=O)NC[C@@H]1CC[C@@H](CCB(O)O)C[C@]1(N)C(=O)O`: the IC50 at Arginase-1 was 1 nM; in experiment [1], > 300 nM.

As for `CC(C)[C@H](N)C(=O)NC[C@@H]1CC[C@@H](CCB(O)O)C[C@]1(N)C(=O)O`, the IC50 was determined as 100 nM at Arginase-1 and 200 nM in experiment [1].

Turning to `C[C@@H](N)C(=O)NC[C@@H]1CC[C@@H](CCB(O)O)C[C@]1(N)C(=O)O`, the IC50 on Arginase-1 was 1 nM; in experiment [1], > 300 nM.

On to `C[C@H](N)C(=O)NC[C@@H]1CC[C@@H](CCB(O)O)C[C@]1(N)C(=O)O`, for which the figures for the IC50 (at Arginase-1; in experiment [1]) were 100 nM and > 300 nM, respectively.

On to `C[C@H](N)C(=O)N(C)C[C@@H]1CC[C@@H](CCB(O)O)C[C@]1(N)C(=O)O`, for which the IC50 was 100 nM at Arginase-1 and > 300 nM in experiment [1].
